Laboratory results from US12516039B2, “N-linked isoquinoline amides as LRRK2 inhibitors, pharmaceutical compositions, and uses thereof” (Merck Sharp & Dohme LLC, priority 2020, dated 2026).

molecular target: T1, GST-tagged truncated human mutant G2019S LRRK2 (Homo sapiens, UniProt Q5S007, G2019S); test: LRRK2 G2019S Km ATP LanthaScreen assay; format: biochemical; conditions: 134 μM ATP (Km ATP), LRRKtide substrate, mean of several tests
T1 construct: GST-tagged truncated human mutant G2019S LRRK2; purchased Life Technologies Corporation (Carlsbad, CA)
Procedure: Unless otherwise noted, all reactions are magnetically stirred. Unless otherwise noted, when diethyl ether is used in the experiments described below, it is Fisher ACS certified material and is stabilized with BHT. Unless otherwise noted, “concentrated” and/or “solvent removed under reduced pressure” means evaporating the solvent from a solution or mixture using a rotary evaporator or vacuum pump. Unless otherwise noted, flash chromatography is carried out on a Teledyne Isco (Lincoln, NE), Analogix (Burlington, WI), or Biotage (Stockholm, SWE) automated chromatography system using a commercially available cartridge as the column. Columns may be purchased from Teledyne Isco, Analogix, Biotage, Varian (Palo Alto, CA), or Supelco (Bellefonte, PA) and are usually filled with silica gel as the stationary phase. Reverse phase prep-HPLC conditions, where used, can be found at the end of each experimental section. Aqueous solutions were concentrated on a Genevac (Ipswich, ENG) or by freeze-drying/lyophilization. Unless otherwise noted, all LRRK2 pIC50 data presented in tables refers to the LRRK2 G2019S Km ATP LanthaScreen™ assay (Life Technologies Corp., Carlsbad, CA) that is described in the Biological Assay section.
Biological Assay: LRRK2 Km ATP LanthaScreen™ Assay
The LRRK2 kinase activity reported herein as IC50 values was determined with LanthaScreen™ technology from Life Technologies Corporation (Carlsbad, CA) using GST-tagged truncated human mutant G2019S LRRK2 in the presence of the fluorescein-labeled peptide substrate LRRKtide, also from Life Technologies. The data presented for the Km ATP LanthaScreen™ Assay represents mean IC50 values based on several test results and may have reasonable deviations depending on the specific conditions and reagents used. Assays were performed in the presence of 134 μM ATP (Km ATP). Upon completion, the assay was stopped and phosphorylated substrate detected with a terbium (Tb)-labeled anti-pERM antibody (cat. no. PV4898). The compound dose response was prepared by diluting a 10 mM stock of compound to a maximum concentration of 9.99 μM in 100% dimethylsulfoxide followed by custom fold serial dilution in dimethylsulfoxide nine times. Twenty nanoliters of each dilution was spotted via a Labcyte Echo onto a 384-well black-sided plate (Corning 3575) followed by 15 μl of a 1.25 nM enzyme solution in 1× assay buffer (50 mM Tris pH 8.5, 10 mM MgCl2, 0.01% Brij-35, 1 mM EGTA, 2 mM dithiothreitol, 0.05 mM sodium orthovanadate). Following a 15-minute incubation at room temperature, the kinase reaction was started with the addition of 5 μl of 400 nM fluorescein-labeled LRRKtide peptide substrate and 134 μM ATP solution in 1× assay buffer. The reaction was allowed to progress at ambient temperature for 90 minutes. The reaction was then stopped by the addition of 20 μl of TR-FRET Dilution Buffer (Life Technologies, Carlsbad, CA) containing 2 nM Tb-labeled anti-phospho LRRKtide antibody and 10 mM EDTA (Life Technologies, Carlsbad, CA). After an incubation of 1 hour at room temperature, the plate was read on an EnVision multimode plate reader (Perkin Elmer, Waltham, MA) with an excitation wavelength of 337 nm (Laser) and a reading emission at both 520 and 495 nm. Compound IC50s were interpolated from nonlinear regression best fits of the log of the final compound concentration, plotted as a function of the 520/495-nm emission ratio using Activity base. Abase uses a 4 parameter (4P) logistic fit based on the Levenberg-Marquardt algorithm.

T1 sequence (Q5S007 970-2527 G2019S limits assumed): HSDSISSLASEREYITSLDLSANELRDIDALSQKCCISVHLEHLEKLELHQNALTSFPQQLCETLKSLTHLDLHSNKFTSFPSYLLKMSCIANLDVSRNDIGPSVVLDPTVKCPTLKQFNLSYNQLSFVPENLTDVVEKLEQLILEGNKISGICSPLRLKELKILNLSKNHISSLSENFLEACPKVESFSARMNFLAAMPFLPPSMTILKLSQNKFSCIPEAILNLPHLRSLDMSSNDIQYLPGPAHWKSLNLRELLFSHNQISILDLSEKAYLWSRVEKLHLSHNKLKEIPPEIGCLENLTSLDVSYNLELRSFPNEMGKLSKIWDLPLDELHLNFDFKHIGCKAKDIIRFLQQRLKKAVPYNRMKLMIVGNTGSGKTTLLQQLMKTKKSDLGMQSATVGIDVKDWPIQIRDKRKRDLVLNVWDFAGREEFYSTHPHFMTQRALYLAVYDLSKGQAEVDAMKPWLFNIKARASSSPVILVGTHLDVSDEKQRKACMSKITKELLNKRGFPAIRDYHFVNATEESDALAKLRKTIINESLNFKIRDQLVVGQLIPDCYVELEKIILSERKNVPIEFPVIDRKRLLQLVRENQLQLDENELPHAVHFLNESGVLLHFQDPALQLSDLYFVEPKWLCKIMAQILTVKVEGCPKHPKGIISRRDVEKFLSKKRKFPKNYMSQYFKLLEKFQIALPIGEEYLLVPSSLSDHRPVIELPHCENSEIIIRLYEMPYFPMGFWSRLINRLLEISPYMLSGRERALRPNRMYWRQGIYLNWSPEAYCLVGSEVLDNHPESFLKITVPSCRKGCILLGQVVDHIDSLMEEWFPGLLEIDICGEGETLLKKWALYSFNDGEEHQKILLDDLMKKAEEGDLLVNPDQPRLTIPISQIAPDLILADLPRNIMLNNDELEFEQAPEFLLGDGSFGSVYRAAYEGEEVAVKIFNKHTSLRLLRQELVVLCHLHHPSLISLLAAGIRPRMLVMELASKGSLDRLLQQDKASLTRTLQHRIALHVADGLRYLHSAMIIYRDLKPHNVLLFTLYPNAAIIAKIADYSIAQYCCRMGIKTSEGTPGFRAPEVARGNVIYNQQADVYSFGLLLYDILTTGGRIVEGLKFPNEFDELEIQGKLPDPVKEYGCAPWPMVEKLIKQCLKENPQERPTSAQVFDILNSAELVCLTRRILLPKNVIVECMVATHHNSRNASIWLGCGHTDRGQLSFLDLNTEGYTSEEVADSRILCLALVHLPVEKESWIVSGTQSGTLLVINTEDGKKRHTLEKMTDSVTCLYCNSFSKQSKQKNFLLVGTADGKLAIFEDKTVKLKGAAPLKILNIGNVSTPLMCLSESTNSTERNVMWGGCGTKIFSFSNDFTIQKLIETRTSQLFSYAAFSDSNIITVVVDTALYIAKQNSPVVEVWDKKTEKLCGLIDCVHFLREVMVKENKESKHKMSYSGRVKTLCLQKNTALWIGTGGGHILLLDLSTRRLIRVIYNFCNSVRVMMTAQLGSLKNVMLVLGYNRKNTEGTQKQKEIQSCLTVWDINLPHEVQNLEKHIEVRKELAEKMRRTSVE

| Compound | LRRK2 pIC50 |
| --- | --- |
| O=C(Nc1cc2cc(N3CCC(N4CC(F)C4)CC3)c(Cl)cc2cn1)C1CC12CCOCC2 (centres unmarked) [Ex-4.6] | 8.61 |
| O=C(Nc1cc2cc(N3CCN(C4COC4)CC3)c(Cl)cc2cn1)C1CC1 [Ex-8.1, N-(7-chloro-6-(4-(oxetan-3-yl)piperazin-1-yl)isoquinolin-3-yl)cyclopropanecarboxamide] | 7.99 |
| (3R or 3S)-N-[6-[4-((3R,4R or 3S,4S)-4-fluoro-3-methyl-tetrahydrofuran-3-yl)piperazin-1-yl]-7-methyl-3-isoquinolyl]-5,5-dimethyl-tetrahydrofuran-3-carboxamide [Ex-10.96] | 8.99 |

same assay, conditions: 134 μM ATP (Km ATP), LRRKtide substrate, mean of several tests, read-out: LRRK2 pIC50 (converted)

| Compound | IC50 |
| --- | --- |
| Cc1cc2cnc(NC(=O)C3CC3c3cnn(C)c3C(F)(F)F)cc2cc1N1CCN(C2(C)CCOC2)CC1 (single isomer, unassigned) [Ex-10.36, (1R,2R or 1S,2S)-N-[7-methyl-6-[4-((R or S)-3-methyltetrahydrofuran-3-yl)piperazin-1-yl]-3-isoquinolyl]-2-[1-methyl-5-(trifluoromethyl)pyrazol-4-yl]cyclopropanecarboxamide] | 107 nM |
| Cc1cc2cnc(NC(=O)C3CC3c3cnn(C)c3C(F)(F)F)cc2cc1N1CCN(C2(C)CCOC2)CC1 (single isomer, unassigned) [Ex-10.33, (1R,2R or 1S,2S)-N-[7-methyl-6-[4-((R or S)-3-methyltetrahydrofuran-3-yl)piperazin-1-yl]-3-isoquinolyl]-2-[1-methyl-5-(trifluoromethyl)pyrazol-4-yl]cyclopropanecarboxamide] | 4.79 nM |
| Cc1cc2cnc(NC(=O)C3CC3c3cnn(C)c3C(F)(F)F)cc2cc1N1CCN(C2(C)CCOC2)CC1 (single isomer, unassigned) [Ex-10.35, (1R,2R or 1S,2S)-N-[7-methyl-6-[4-((R or S)-3-methyltetrahydrofuran-3-yl)piperazin-1-yl]-3-isoquinolyl]-2-[1-methyl-5-(trifluoromethyl)pyrazol-4-yl]cyclopropanecarboxamide] | 1.7 nM |
| Cc1cc2cnc(NC(=O)C3C(C)C3c3cnn(C)c3)cc2cc1N1CCN(C2(C)CCOC2)CC1 (single isomer, unassigned) [Ex-9.13] | 11.5 nM |
| Cn1ccc(C2CC2C(=O)Nc2cc3cc(N4CCN(C5(C)COCC5F)CC4)c(Cl)cc3cn2)n1 (single isomer, unassigned) [Ex-10.18, (1R,2R or 1S,2S)-N-[7-chloro-6-[4-((3R,4R or 3S,4S)-4-fluoro-3-methyl-tetrahydrofuran-3-yl)piperazin-1-yl]-3-isoquinolyl]-2-(1-methylpyrazol-3-yl)cyclopropanecarboxamide] | 8.71 nM |
| CC(C)(O)C1CC1C(=O)Nc1cc2cc(N3CCN(C4(C)COCC4O)CC3)c(Cl)cc2cn1 (single isomer, unassigned) [Ex-10.6] | 0.141 nM |
| CC1(N2CCN(c3cc4cc(NC(=O)C5CC56CC6)ncc4cc3Cl)CC2)COCC1O (single isomer, unassigned) [Ex-2.15, (R or S)-N-(7-chloro-6-(4-((3R,4R or 3S,4S)-4-hydroxy-3-methyltetrahydrofuran-3-yl)piperazin-1-yl)isoquinolin-3-yl)spiro[2.2]pentane-1-carboxamide] | 30.2 nM |
| Cn1ncc(C2CC2C(=O)Nc2cc3cc(N4CCN(C5(C)COCC5F)CC4)c(Cl)cc3cn2)c1C(F)(F)F (single isomer, unassigned) [Ex-10.62, (1R,2R or 1S,2S)-N-[7-chloro-6-[4-((3R,4R or 3S,4S)-4-fluoro-3-methyl-tetrahydrofuran-3-yl)piperazin-4-ium-1-yl]-3-isoquinolyl]-2-[1-methyl-5-(trifluoromethyl)pyrazol-4-yl]cyclopropanecarboxamide] | 0.0813 nM |
| COC1CC(C(=O)Nc2cc3cc(N4CCN(C5(C)COCC5O)CC4)c(Cl)cc3cn2)C1 (single isomer, unassigned) [Ex-7.1] | 0.832 nM |
| CCC1C(C(=O)Nc2cc3cc(N4CCN(C5(C)CCOC5)CC4)c(Cl)cc3cn2)C1c1cnn(C)c1 (single isomer, unassigned) [Ex-9.11] | 1.15 nM |
| CC1(N2CCN(c3cc4cc(NC(=O)C5CC5C5CCOCC5)ncc4cc3Cl)CC2)COCC1F (single isomer, unassigned) [Ex-10.69, (1R,2R or 1S,2S)-N-[7-chloro-6-[4-((3R,4R or 3S,3S)-4-fluoro-3-methyl-tetrahydrofuran-3-yl)piperazin-1-yl]-3-isoquinolyl]-2-tetrahydropyran-4-yl-cyclopropanecarboxamide] | 0.0813 nM |
| CC1(N2CCN(c3cc4cc(NC(=O)C5CCCOC5)ncc4cc3Cl)CC2)COCC1O (single isomer, unassigned) [Ex-10.3, (3R or 3S)-N-(7-chloro-6-(4-((3R, 4R or 3S, 4S)-4-hydroxy-3-methyltetrahydrofuran-3-yl)piperazin-1-yl)isoquinolin-3-yl)tetrahydro-2H-pyran-3-carboxamide] | 1.58 nM |
| CCC1C(C(=O)Nc2cc3cc(N4CCN(C5(C)COCC5O)CC4)c(Cl)cc3cn2)C1c1ccn(C)n1 (single isomer, unassigned) [Ex-10.65, (1R,2R,3R, or 1R,2S,3R, or 1S,2R,3S, or 1S,2S,3S)-N-[7-chloro-6-[4-( (3R,4R or 3S,4S)-4-hydroxy-3-methyl-tetrahydrofuran-3-yl)piperazin-1-yl]-3-isoquinolyl]-2-ethyl-3-(1-methylpyrazol-3-yl)cyclopropanecarboxamide] | 0.0813 nM |
| CC1(C2CCOC2)CC1C(=O)Nc1cc2cc(N3CCN(C4(C)COCC4O)CC3)c(Cl)cc2cn1 (single isomer, unassigned) [Ex-10.85, (1R,2R or 1S,2S, or 1R,2S, or 1S,2R)-N-[7-chloro-6-[4-((3R,4R or 3S,4S)-4-hydroxy-3-methyl-tetrahydrofuran-3-yl)piperazin-1-yl]-3-isoquinolyl]-2-methyl-2-tetrahydrofuran-3-yl-cyclopropanecarboxamide] | 0.0813 nM |
| COC1COCC1(C)N1CCN(c2cc3cc(NC(=O)C4CC45CCOCC5)ncc3cc2Cl)CC1 (single isomer, unassigned) [Ex-5.4] | 28.8 nM |
| Cc1cc2cnc(NC(=O)C3C4CCOCC43)cc2cc1N1CCN(C2(C)CCOC2)CC1 (single isomer, unassigned) [Ex-10.47, (1S,6R,7R, 1R,6S,7R, or 1R, 6S,7S, or 1S,6S,7S)-N-(7-methyl-6-(4-((R or S)-3-methyltetrahydrofuran-3-yl)piperazin-1-yl)isoquinolin-3-yl)-3-oxabicyclo[4.1.0]heptane-7-carboxamide] | 10.2 nM |
| CC1C(C(=O)Nc2cc3cc(N4CCN(C5(C)CCOC5)CC4)c(Cl)cc3cn2)C1c1cnn(C)c1 (single isomer, unassigned) [Ex-9.7] | 0.0813 nM |
| CC1(N2CCN(c3cc4cc(NC(=O)C5CC5C(F)F)ncc4cc3Cl)CC2)COCC1F (single isomer, unassigned) [Ex-10.76, (1R,2R or 1S,2S)-N-[7-chloro-6-[4-((3R,4R or 3S,4S)-4-fluoro-3-methyl-tetrahydrofuran-3-yl)piperazin-1-yl]-3-isoquinolyl]-2-(difluoromethyl)cyclopropanecarboxamide] | 0.0813 nM |
| Cc1cc2cnc(NC(=O)C3CC34CCOC4)cc2cc1N1CCN(C2(C)COCC2O)CC1 (single isomer, unassigned) [Ex-6.6, (1R, 3S or 1S,3R, or 1R,3S, or 1S,3S)-N-(6-(4-((3R, 4R or 3S,4S)-4-hydroxy-3-methyltetrahydrofuran-3-yl)piperazin-1-yl)-7-methylisoquinolin-3-yl)-5-oxaspiro[2.4]heptane-1-carboxamide] | 45.7 nM |
